# Key:
# [1] = system: rodent test subjects; test: Analgesia; type: in vivo; conditions: for analgesia efficacy: in vivo; for analgesia compared with morphine: rodent test subjects
# [2] = system: mu opioid receptor; test: Agonism at mu opioid receptor
# [3] = molecular target: delta opioid receptor (Mus musculus, UniProt P32300); test: Agonism at delta opioid receptor
# [4] = system: pressure nociception in rats; test: Analgesic activity, tail pinch assay in rats (i.v.); type: in vivo, rat (male Sprague-Dawley CD strain); conditions: iv, 5 min, rat tail pinch, 5 minutes after injection, read-out: Antinociceptive ED50 (half-maximum effective dose)
# Description: Analgesic activity was assessed by the tail pinch assay in rats (male Sprague-Dawley CD strain, weight approximately 300 g) after intravenous (i.v.) tail vein injection. A group of 6 to 8 animals was injected i.v. with compound in sterile 5% dextrose solution at a concentration of 1-5 mg/mL. Five minutes after injection, an artery clamp (Fisher Scientific Co., self-closing artery forcep, catalog #08-905) was placed on the tail about one inch from the tip of the tail to induce pressure nociception for a short duration (maximum of 20 seconds). The nociceptive response was judged by any sign of discomfort, such as running, squeaking, or turning around to bite the clamp. The dose-response curve was plotted for each compound.
# [5] = system: rodent test subjects; test: Proconvulsant activity in rodent tests
# [6] = system: rodent test subjects; test: Respiratory depression in rodents; conditions: vs morphine
# [7] = system: rodent test subjects; test: Muscle rigidity in rodents; conditions: vs morphine
# [8] = system: opioid receptors (mu/delta); test: Opioid receptor ligand selectivity / mixed agonist character
# Chain of delta opioid receptor (P32300 whole entry): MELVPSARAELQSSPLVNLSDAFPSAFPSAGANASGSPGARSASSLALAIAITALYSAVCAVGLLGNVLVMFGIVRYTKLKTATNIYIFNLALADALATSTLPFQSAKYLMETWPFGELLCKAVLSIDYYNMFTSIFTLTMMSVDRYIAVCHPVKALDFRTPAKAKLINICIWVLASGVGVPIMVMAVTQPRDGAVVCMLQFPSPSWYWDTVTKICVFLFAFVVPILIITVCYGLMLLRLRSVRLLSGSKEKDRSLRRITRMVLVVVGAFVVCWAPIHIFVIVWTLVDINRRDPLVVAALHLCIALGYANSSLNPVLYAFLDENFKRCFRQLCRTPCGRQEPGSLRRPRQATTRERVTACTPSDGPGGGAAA
Compound,analgesia efficacy [1],analgesia compared with morphine [1],agonism at mu opioid receptor [2],agonism at delta opioid receptor [3],ED50 [4] [mg/kg],proconvulsant activity [5],respiratory depression [6],muscle rigidity [7],opioid agonist character [8],opioid receptor ligand selectivity [8]
"C=CCN1C[C@H](C)N([C@@H](c2cccc(O)c2)c2cccc(C(=O)N(C)c3cccc(F)c3)c2)C[C@H]1C [Example 16, (+)-3-((αR)-α-((2S,5R)-4-Allyl-2,5-dimethyl-1-piperazinyl)-3-hydroxybenzyl)-N-(3-fluorophenyl)-N-methylbenzamide]",efficacious in mediating analgesia,comparable to mu-analgesic morphine,agonism,agonism,0.03,free of proconvulsant activity,much reduced extent,much reduced extent,mixed mu/delta opioid agonists,highly selective
"C=CCN1C[C@H](C)N([C@@H](c2cccc(O)c2)c2cccc(C(=O)N(C)c3ccccc3)c2)C[C@H]1C [Example 9, (+)-3-((αR)-α-((2S,5R)-4-Allyl-2.5dimethyl-1-piperazinyl)-3-hydroxybenzyl)-N-methyl-N-phenylbenzamide]",efficacious in mediating analgesia,comparable to mu-analgesic morphine,agonism,agonism,,free of proconvulsant activity,much reduced extent,much reduced extent,mixed mu/delta opioid agonists,highly selective
"C=CCN1C[C@H](C)N([C@@H](c2cccc(O)c2)c2cccc(C(=O)N(CC)CC)c2)C[C@H]1C [Example 1, (+)-3-((αR)-α-((2S,5R)-4-Allyl-2,5-dimethyl-1-piperazinyl)-3-hydroxybenzyl)-N,N-diethylbenzamide]",efficacious in mediating analgesia,comparable to mu-analgesic morphine,agonism,agonism,0.35,free of proconvulsant activity,much reduced extent,much reduced extent,mixed mu/delta opioid agonists,highly selective
"C=CCN1C[C@H](C)N([C@@H](c2cccc(O)c2)c2cccc(C(=O)N(CC)c3ccc(F)cc3)c2)C[C@H]1C [Example 28, (+)-3-((αR)-α-((2S,5R)-4-Allyl-2,5-dimethyl-1-piperazinyl)-3-hydroxybenzyl)-N-ethyl-N-(4-fluorophenyl)benzamide]",efficacious in mediating analgesia,comparable to mu-analgesic morphine,agonism,agonism,0.03,free of proconvulsant activity,much reduced extent,much reduced extent,mixed mu/delta opioid agonists,highly selective
"C=CCN1C[C@H](C)N([C@@H](c2cccc(O)c2)c2cccc(C(=O)N(C)c3ccccc3F)c2)C[C@H]1C [Example 31, (+)-3-((αR)-α-((2S,5R)-4-Allyl-2,5-dimethyl-1-piperazinyl)-3-hydroxybenzyl)-N-(2-fluorophenyl)-N-methylbenzamide]",efficacious in mediating analgesia,comparable to mu-analgesic morphine,agonism,agonism,,free of proconvulsant activity,much reduced extent,much reduced extent,mixed mu/delta opioid agonists,highly selective
"C=CCN1C[C@H](C)N([C@@H](c2cccc(O)c2)c2cccc(C(=O)N(C)c3ccc(F)cc3)c2)C[C@H]1C [Example 10, (+)-3-((αR)-α-((2S,5R)-4-Allyl-2,5-dimethyl-1-piperazinyl)-3-hydroxybenzyl)-N-(4-fluorophenyl)-N-methylbenzamide]",efficacious in mediating analgesia,comparable to mu-analgesic morphine,agonism,agonism,,free of proconvulsant activity,much reduced extent,much reduced extent,mixed mu/delta opioid agonists,highly selective
"C=CCN1C[C@H](C)N([C@@H](c2cccc(O)c2)c2cccc(C(=O)N(CC)c3ccccc3)c2)C[C@H]1C [Example 12, (+)-3-((αR)-α-((2S,5R)-4-Allyl-2,5-dimethyl-1-piperazinyl)-3-hydroxybenzyl)-N-ethyl-N-phenylbenzamide]",efficacious in mediating analgesia,comparable to mu-analgesic morphine,agonism,agonism,,free of proconvulsant activity,much reduced extent,much reduced extent,mixed mu/delta opioid agonists,highly selective
"C=CCN1C[C@H](C)N([C@@H](c2cccc(O)c2)c2cccc(C(=O)N(CCC)c3ccccc3)c2)C[C@H]1C [Example 27, (+)-3-((αR)-α-((2S,5R)-4-Allyl-2.5-dimethyl-1-piperazinyl)-3-hydroxybenzyl)-N-phenyl-N-propylbenzamide]",efficacious in mediating analgesia,comparable to mu-analgesic morphine,agonism,agonism,0.04,free of proconvulsant activity,much reduced extent,much reduced extent,mixed mu/delta opioid agonists,highly selective
"C=CCN1C[C@H](C)N([C@@H](c2cccc(O)c2)c2cccc(C(=O)N(C)c3ccc(OC)cc3)c2)C[C@H]1C [Example 30, (+)-3-((αR)-α-((2S,5R)-4-Allyl-2.5-dimethyl-1-piperazinyl)-3-hydroxybenzyl)-N-(4-methoxyphenyl)-N-methylbenzamide]",efficacious in mediating analgesia,comparable to mu-analgesic morphine,agonism,agonism,,free of proconvulsant activity,much reduced extent,much reduced extent,mixed mu/delta opioid agonists,highly selective
